Data on 3 molecules can be found in US5571793A, “Endoparasiticidal compositions based on open-chain tetradepsipeptides” (Bayer Aktiengesellschaft, priority 1993, dated 1996).

This test concerns Haemonchus contortus. As to the kind of experiment: In vivo nematode test Haemonchus contortus/sheep. Conditions: sheep infected experimentally with Haemonchus contortus; pure active compound orally and/or intravenously; dose at which nematode egg excretion with the faeces stops completely. As for the experimental part: Sheep which had been infected experimentally with Haemonchus contortus were treated after the prepatency period of the parasites had elapsed. The active compounds were administered orally and/or intravenously in the form of the pure active compound.
The degree of effectiveness is determined by quantitatively determining the nematode eggs excreted with the faeces before and after the treatment.
If egg excretion stops completely after the treatment, this means that the nematodes have been aborted or damaged in such a manner that they no longer produce eggs (dosis effectiva).
Active compounds which have been tested and effective dosage rates (dosis effectiva) can be seen from the Table which follows: […]
As to `CCN[C@@H](CC(C)C)C(=O)O[C@H](C)C(=O)N(CC)[C@@H](CC(C)C)C(=O)O[C@H](Cc1ccccc1)C(=O)OC(C)(C)C` [Example 1, tert.-Butyl-N-ethyl-L-leucyl-D-lactyl-N-ethyl-L-leucyl-D-3-phenyllactate], the “Dosis effectiva” value is 10 mg/kg.
For the molecule `CCCN(Cc1ccccc1)[C@@H](CC(C)C)C(=O)O[C@H](C)C(=O)N(CCC)[C@@H](CC(C)C)C(=O)O[C@H](Cc1ccccc1)C(=O)O` [Example 2, N-Benzyl-N-propyl-L-leucyl-D-lactyl-N-propyl-L-leucyl-D-phenyllactic acid], the “Dosis effectiva” value came out at 10 mg/kg.
With `CN[C@@H](Cc1ccccc1)C(=O)O[C@H](C)C(=O)N(C)[C@H](Cc1ccccc1)C(=O)O[C@H](C)C(=O)OC(C)(C)C` [Example 3, tert.-Butyl-N-methyl-L-phenylalanyl-D-lactyl-N-methyl-D-phenylalanyl-D-lactate], the “Dosis effectiva” value was 10 mg/kg.
